Laboratory results reported in US6583155B2, “Method for treating allergies using substituted pyrazoles” (priority 2000, dated 2003).
Entries after “also recorded” stand apart in the source; their conditions may differ.

How the values were obtained:
[1] = test system: human T cells (PBMC from allergic donors) stimulated with ragweed extracts; assay: Ex vivo human T cell-proliferation assay, ragweed allergen extracts; details: PBMC from allergy donors, 7 days culture, 3H-thymidine incorporation
[2] = test system: human T cells (PBMC from allergic donors) stimulated with house dust mite extracts; assay: Ex vivo human T cell-proliferation assay, house dust mite allergen extracts
[3] = test system: human T cells (PBMC) stimulated with ConA; assay: Ex vivo human T cell-proliferation assay, ConA (pan-T cell mitogen) control; details: pan-T cell mitogen specificity control
[4] = test system: invariant chain (li) degradation in PBMC from human blood; assay: Monitoring cathepsin S inhibition in human blood: p10li fragment by Western blot; details: incubation for 24 h, SDS-PAGE / Western blot

Structure (SMILES) | T cell proliferative responses to ragweed extracts (short and giant) [1] | T cell proliferative responses to Der f extract ([2]; PBMC from an allergy donor, titrated doses of compound, 7 days, 3H-thymidine incorporation (FIG. 3)) | T cell proliferative responses to house dust mite extracts (Der p and Der f) ([2]; PBMC from allergy donors, 7 days culture, 3H-thymidine incorporation) | T cell proliferative responses induced by ConA [3] | p10li fragment of invariant chain (block in degradation of li) [4]
CS(=O)(=O)N1CCc2c(c(-c3ccc(Br)cc3)nn2CC(O)CN2CCC(n3c(=O)[nH]c4ccc(Cl)cc43)CC2)C1 (stereo not shown) [Example 8, 1-(1-{3-[3-(4-Bromo-phenyl)-5-methanesulfonyl-4,5,6,7-tetrahydro-pyrazolo[4,3-c]pyridin-1-yl]-2-hydroxy-propyl}-piperidin-4-yl)-6-chloro-1,3-dihydro-benzoimidazol-2-one] | inhibition | inhibition | – | – | –
Cc1cc(-c2nn(CC(O)CN3CCC(n4c(=O)[nH]c5ccc(Cl)cc54)CC3)c3c2CN(S(C)(=O)=O)CC3)ccc1Cl (stereo not shown) [Example 53, 6-Chloro-1-(1-{3-[3-(4-chloro-3-methyl-phenyl)-5-methanesulfonyl-4,5,6,7-tetrahydro-pyrazolo[4,3-c]pyridin-1-yl]-2-hydroxy-propyl}-piperidin4-yl)-1,3-dihydro-benzoimidazol-2-one] | inhibition | – | – | – | –
CC(C)C[C@H](NC(=O)N1CCOCC1)C(=O)N[C@H](/C=C/S(=O)(=O)c1ccccc1)CCc1ccccc1 [LHVS, 4-morpholinecarboxamide, N-[(1S)-3-methyl-1-[[[(1S, 2E)-1-(2-phenylethyl)-3-(phenylsulfonyl)-2-propenyl]amino]carbonyl]butyl]-] | strongly inhibited; also recorded: inhibition | – | strongly inhibited; also recorded: inhibition | not affected | the p10li fragment was seen
